Key:
human skin subcutis = experiment: Normalized total lipids in subcutis of ex-vivo cultured full-thickness human skin; format: cell-based; conditions: for Total lipid content in skin subcutis samples, % ratio of the control group performance (Average): Table 9, abdominal skin, six days of organ culture (five of treatment)
Text: The reported examples from 19 to 23 are intended to show the modulation of adipocyte lipid content exerted by the experimental preparations on human skin subcutis. Full-thickness ex-vivo human skin samples, including the subcutis, were ex-vivo cultured and treated with compounds obtained from valerian extract, i.e. valerenic acid (VA) and pentanoic acid (AP), in order to evaluate their activity on the lipid metabolism.
The responses of the treated tissues, in comparison to the untreated group, were evaluated after 6 days of culture, by isolating the subcutis of each skin sample and then estimating its normalized content in total lipids.
Cylindrical pieces (7 mm in diameter) of full thickness human skin were excised from an abdominal skin sample paying attention to preserve the subcutis. These organ samples were seeded in 24-well plates at a density of 1 sample/well with 500 μl of culture medium, and cultured up to day 6. The samples submitted to experimental treatments received medium supplemented with VA at 0.5, 5 and 50 μM or PA at 0.2 and 2 μM. After the first day of culture, the samples were arranged in experimental groups including 4 samples each one. The control group received modified William E medium, while the samples submitted to experimental treatments received the same medium supplemented with the extracts. The culture medium was renewed every other day. After six days of organ culture (five of treatment), the subcutis of each skin sample was separated from the dermis and its total content of lipids and proteins was quantified. […] As a result, when lipogenesis is stimulated, an increase in the “total lipids/total proteins ratio”, hereinafter defined “normalized total lipids”, is expected, while the contrary occurs in the case of increased lipolysis.
The analytical protocol adopted to detect values of “normalized total lipids” is described below: • each subcutis sample was homogenized in 1 ml of isopropyl alcohol; • the sample was centrifuged at 14,000 G for 5 minutes and then the supernatant (containing the extracted lipids) was collected; • the supernatant was diluted 10 fold with isopropyl alcohol; • the diluted lipid extract was analysed with a Direct Detect IR Spectrometer (Millipore), which provided the total lipid concentration of the supernatant (mg/ml); • the total lipids of the subcutis sample was quantified multiplying the supernatant lipid concentration (indention 4) by the preliminary dilution factor (indention 3) and then by the volume of isopropyl alcohol used for the lipid extraction (indention 1); • the residual pellet obtained from indention 2 was washed with 1 ml of isopropyl alcohol and, after another centrifugation this solvent was withdrawn; • the pellet was dried in a vacuum dry evaporator and then homogenized in 100 ul of proteolytic buffer (20 mM Tris HCI pH 7.5, 150 mM NaCl, 2 mM EDTA, 0.5% Triton X-100, 2 mM DTT, 1% protease inhibitor cocktail); • the extractive mixture was centrifuged at 14,000 G for 10 minutes and the supernatant was collected and analysed with a Direct Detect IR Spectrometer (Millipore), which provided the total protein concentration of the supernatant (mg/ml); • the obtained total protein concentration was multiplied by the extractive volume (indention 7) in order to quantify the total proteins of the subcutis sample; • the total lipids (indention 5) were divided by the total proteins (indention 9) in order to obtain the amount of lipids per mg of proteins relative to the processed subcutis sample.

[1] = system: human sebaceous glands (hSGs); experiment: Sebum content in ex-vivo cultured human sebaceous glands (hSGs), lipids normalized to proteins; format: cell-based
Text: The following examples are intended to show the modulation of sebum production exerted by the experimental preparations on human sebaceous glands (hSGs) microdissected and cultivated up to day 6. At the end of the culture time, the sebum is extracted and quantified from each experimental group of hSGs and then normalized by the proteins extracted from the residual hSG material (mg lipids/mg proteins). As a result, the biological activity of the tested compounds is inferred by comparing the lipids/proteins ratio of the treated glands with that of the control group. A detailed methodology is reported in EP14179936.1 (Cutech Srl) The adopted experimental model is based on the cultivation of ex-vivo hSGs at constant concentrations of valerian extracts or purified derivatives. This experimental condition is not reproducible in vivo since both topical and oral administration produce fluctuating concentrations, depending on the frequency and composition of the treatment. […] The control group was cultured in standard medium, whereas a 5 μM Capsaicin treatment was included in the experimental design as positive control. Capsaicin is an active component of chili peppers suitable to inhibit sebogenesis [Tóth et al., 2009, J. Invest. Derm. 129: 329-339]. The effect of the treatment was evaluated by assessing the amounts of normalized lipids obtained from the treated groups, i.e. the quantitive ratio beween sebum lipids and proteins extracted from each group of hSGs (mg of lipids/mg of proteins), with respect to the value obtained from the control group. The results were expressed in percentage values, assuming the normalized lipids obtained from the control group as reference value (100%).

[2] = Table 1, scalp sample donor, 6 days culture, 5 μM

## COc1cc(CNC(=O)CCCC/C=C/C(C)C)ccc1O [Capsaicin, reference compound]
Human skin subcutis; 5 μM
  Total lipid content in skin subcutis samples, % ratio of the control group performance (Average): 73.6%
[1]; Examples 1 to 4 donor, positive control 5 μM
  reduction of sebum content of the hSGs in comparison with the control group: 17%
[1]; Examples 5 to 7 donor, positive control 5 μM
  reduction of hSGs sebum content in comparison with the control group: 10%
[1]; Examples 22 to 25, positive control 5 μM
  response of sebum production versus control: −17%
[1]; [2]
  Sebum content in hSGs, % ratio of the control group performance (Average): 83.3%
[1]; Table 2, another donor, 5 μM
  Sebum content in hSGs, % ratio of the control group performance (Average): 90.2%
[1]; Table 4, another donor, 5 μM
  Sebum content in hSGs, % ratio of the control group performance (Average): 37.2%
[1]; Table 5, 5 μM
  Sebum content in hSGs, % ratio of the control group performance (Average): 45.6%
[1]; Table 6, same donor, 5 μM
  Sebum content in hSGs, % ratio of the control group performance (Average): 59.2%
[1]; Table 7, 5 μM
  Sebum content in hSGs, % ratio of the control group performance (Average): 83.0%

## CCCCC(=O)O [PA, pentanoic acid]
Human skin subcutis; 0.2 μM
  Total lipid content in skin subcutis samples, % ratio of the control group performance (Average): 82.6%
Human skin subcutis; 2.0 μM
  Total lipid content in skin subcutis samples, % ratio of the control group performance (Average): 91.6%
Human skin subcutis; concentration not given
  reduction in total lipid content of skin subcutis: 17.8%
[1]; Table 5, 0.2 mM
  Sebum content in hSGs, % ratio of the control group performance (Average): 57.3%
[1]; Table 5, 2 mM
  Sebum content in hSGs, % ratio of the control group performance (Average): 65.6%
[1]; Table 6, same donor, 0.02 mM
  Sebum content in hSGs, % ratio of the control group performance (Average): 62.5%
[1]; Table 6, same donor, 0.2 mM
  Sebum content in hSGs, % ratio of the control group performance (Average): 60.9%
[1]; Table 6, same donor, 2.0 mM
  Sebum content in hSGs, % ratio of the control group performance (Average): 75.4%

## CC1=C2[C@H](/C=C(\C)C(=O)O)CC[C@@H](C)[C@H]2CC1 [VA, valerenic acid]
Human skin subcutis; 5.0 μM
  response of lipid content in the skin subcutis versus control: −44.7%
Human skin subcutis; 0.5 μM
  Total lipid content in skin subcutis samples, % ratio of the control group performance (Average): 63.9%
Human skin subcutis; 5 μM
  Total lipid content in skin subcutis samples, % ratio of the control group performance (Average): 55.3%
Human skin subcutis; 50.0 μM
  Total lipid content in skin subcutis samples, % ratio of the control group performance (Average): 59.0%
[1]; Examples 1 to 4 donor, 0.5 μM
  reduction of sebum content in the hSGs: 26%
[1]; Examples 5 to 7 donor
  concentration range producing sebogenesis inhibition (very effective): 0.05 to 5 µM
[1]; Examples 26 to 27, 0.5 μM
  reduction of sebogenesis (change versus control): −29%
[1]; Table 1, scalp sample donor, 6 days culture, 0.05 μM
  Sebum content in hSGs, % ratio of the control group performance (Average): 98.9%
[1]; Table 1, scalp sample donor, 6 days culture, 0.5 μM
  Sebum content in hSGs, % ratio of the control group performance (Average): 74.2%
[1]; [2]
  Sebum content in hSGs, % ratio of the control group performance (Average): 88.0%
[1]; Table 1, scalp sample donor, 6 days culture, 50 μM
  Sebum content in hSGs, % ratio of the control group performance (Average): 88.6%
[1]; Table 2, another donor, 0.05 μM
  Sebum content in hSGs, % ratio of the control group performance (Average): 85.6%
[1]; Table 2, another donor, 0.5 μM
  Sebum content in hSGs, % ratio of the control group performance (Average): 61.2%
[1]; Table 2, another donor, 5 μM
  Sebum content in hSGs, % ratio of the control group performance (Average): 88.5%
[1]; Table 3, another donor, 0.05 μM
  Sebum content in hSGs, % ratio of the control group performance (Average): 75.0%
[1]; Table 3, another donor, 0.5 μM
  Sebum content in hSGs, % ratio of the control group performance (Average): 89.0%
[1]; Table 4, another donor, 0.05 μM
  Sebum content in hSGs, % ratio of the control group performance (Average): 54.1%
[1]; Table 4, another donor, 0.5 μM
  Sebum content in hSGs, % ratio of the control group performance (Average): 63.9%
[1]; Table 6, same donor, 0.05 μM
  Sebum content in hSGs, % ratio of the control group performance (Average): 41.4%
[1]; Table 6, same donor, 0.5 μM
  Sebum content in hSGs, % ratio of the control group performance (Average): 50.4%
[1]; Table 6, same donor, 5 μM
  Sebum content in hSGs, % ratio of the control group performance (Average): 70.7%
[1]; Table 8, 0.5 μM
  Sebum content in hSGs, % ratio of the control group performance (Average): 71.4%
